Results published in PMC6906431, “Selective small molecule PARG inhibitor causes replication fork stalling and cancer cell death” (Nature Communications, 2019).

Tests used:
Assay type in all cases: cell-based, human
[1] = test system: MDA-MB-231 PARG knockdown (PARG-KD) cells; test: Cellular PARylation, anti-PAR immunoblot
Description: Fig. 6 Selective inhibition of PARG by xanthine derivative JA2131. a Clonogenic survival assays of PC3, MDA-MB-231, and MCF-7 cells treated with PARGi. Cells were treated with either DMSO or 10 µM JA2131 for 2 h, irradiated with 3 Gy (MDA-MB-231 and MCF-7), 7 Gy (PC3) IR and grown for ~2 weeks, then colonies were fixed with methanol and stained with crystal violet. The results of three independent experiments are shown. Error bars = the standard error of the mean (SEM). b dose-response of JA2131 in MDA-MB-231 cells with and without IR. Cells were treated with designated concentrations of JA2131 for 2 h and then either left untreated or exposed to 3 Gy IR and allowed to recover for 1 h before lysis. Total protein was immunoblotted with anti-PAR antibody (upper panel), stripped and reprobed with anti-PCNA as a loading control. c MDA-MB-231 cells with stable scrambled shRNA (WT) or stable PARG shRNA, knockdown (KD), were treated with 5 μM JA2131 for 2 h, lysed and then total lysates were immunoblotted for anti-PAR (upper panel) followed by anti-PARG (upper middle panel), anti-PARP1 (lower middle panel) and anti-actin (bottom panel) antibody. […] Stable cells with scramble shRNA (control) and shPARG (PARG-KD) cells were treated with an increasing concentration of JA2131 for growth inhibitory IC50 determination. The data was normalized against 100% survival at the lowest inhibitor concentration. Error bars show the percent coefficient of variation. Equivalent concentrations of DMSO were used as a negative control. e The cytotoxicity of JA2131 along with PDD, Veliparib and Doxorubicin against MRC-5 cells. Error bars show the percent coefficient of variation. f CETSA for in-cell JA2131 target engagement. Normalized anti-PARG western blot intensities of three independent experiments were fitted as above and the estimated aggregation temperature (Tagg) is shown in the tabulated insert. Source Data are provided as a Source Data file.
Using shRNA, next, we generated a stable MDA-MB-231 PARG knockdown (PARG-KD) cell-line (Supplementary Fig. 10). We compared PARGi JA2131-induced PARylation in PARG-KD and control cells. We reasoned that PARG-KD cells would show a reduced response to a selective PARGi as the stable PARG-KD cells would have to adopt a PARG-independent survival mechanism. MDA-MB-231 control cells and PARG-KD cells were treated with JA2131, then total cell lysates were subjected to immunoblotting with anti-PAR antibody, followed by immunodetection for anti-PARG, PARP1 and Actin antibody (Fig. 6c). […] Dose-response curves comparing control and PARG-KD cells further validate the selective action of JA2131 on control cells expressing PARG, but not on the PARG-KD cells (Supplementary Fig. 12).
PC3, MDA-MB-231 cells were maintained in RPMI 1640, MCF-7 cells in Eagle’s Minimum Essential Medium (EMEM), MRC-5 cells in Eagle’s Minimum Essential Medium and Hela and U2OS cells in Dulbecco’s modified Eagle’s high glucose medium (DMEM) supplemented with 10% (vol/vol) fetal bovine serum (FBS) and 1% antibiotic/antimycotic (Lonza) in a humidified incubator with 10% CO2. All cell lines were purchased from ATCC and regularly checked for mycoplasma and cell authentication. SUM 149PT cells were cultured in F-12 Hams (Gibco) supplemented with 5% fetal bovine serum, insulin, and hydrocortisone. […] Cells were fixed with methanol (100%), stained with crystal violet and analyzed using a GelCount instrument (Oxford Optronix Ltd). […]

[2] = test system: MDA-MB-231 control cells (scramble shRNA); test: Sulforhodamine B (SRB) cytotoxicity assay; details: 72 h
Summary of the method: (§1)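 Stable scramble-shRNA control and shPARG knockdown MDA-MB-231 cells, and MRC-5 cells, exposed to increasing compound concentrations for growth-inhibitory IC50 determination. Data normalized to 100% survival at the lowest inhibitor concentration; equivalent DMSO as negative control.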

MRC-5 cells = test: Sulforhodamine B (SRB) cytotoxicity assay; details: Homo sapiens, MRC5, 72 h
Summary of the method: as §1

Question: Which “anti-PAR western blot band, Normalized” value ([1]; 5 μM JA2131 2 h, Ci-DMSO = 1) does the source give for Cn1c(=S)c2[nH]c(SCCN3CCOCC3)nc2n(C)c1=O [JA2131] here?
Answer: The value was 8.898.

Question: And the “anti-PAR western blot band, Intensity inversion” value ([1]; 5 μM JA2131 2 h, ImageJ)?
Answer: Its value is 0.00723.

Question: What about the “anti-PAR western blot band, Neg. substracted” value ([1]; 5 μM JA2131 2 h, ImageJ) of the same compound?
Answer: The value was 0.001922.

Question: What about the “anti-PAR western blot band, mean int.” value ([1]; 5 μM JA2131 2 h, ImageJ) of the same compound?
Answer: Its value is 138.32.

Question: And the “PAR accumulation after treatment” value ([1]; 5 μM, 2 h)?
Answer: Its value is “did not affect the level of PAR accumulation”.

Question: And the IC50 ([2]; Homo sapiens, MDA-MB-231, growth inhibitory)?
Answer: Its IC50 is 3.89 ± 0.88 µM.

Question: And the Viability ([2]; log concentration μM 0.193959)?
Answer: The Viability was 75.9862%.

Question: And the Viability ([2]; log concentration μM 0.49485)?
Answer: The Viability was 65.9005%.

Question: What about the Viability ([2]; log concentration μM 0.79588) of the same compound?
Answer: Its Viability is 45.256%.

Question: What about the Viability ([2]; log concentration μM 1.09691) of the same compound?
Answer: Its Viability is 30.1241%.

Question: What about the Viability ([2]; log concentration μM 1.69897) of the same compound?
Answer: Its Viability is 14.974%.

Question: And the Viability ([2]; log concentration μM 2)?
Answer: The Viability was 13.0697%.

Question: What about the Viability ([2]; log concentration μM 2.30103) of the same compound?
Answer: Its Viability is 16.4202%.

Question: What about the Viability ([2]; log concentration μM -0.10735) of the same compound?
Answer: Its Viability is 96.2538%.

Question: What about the Viability ([2]; log concentration μM -0.40782) of the same compound?
Answer: The Viability was 101.482%.

Question: What about the Viability ([2]; log concentration μM -0.70997) of the same compound?
Answer: Its Viability is 100%.

Question: And the Viability ([2]; log concentration μM -1.00877)?
Answer: The Viability was 100%.

Question: And the IC50 (MRC-5 cells)?
Answer: The IC50 was 132 ± 35.9 µM.
